Data published in patent US5622948A, “Pyrrole pyridazine and pyridazinone anti-inflammatory agents” (Syntex (U.S.A.) Inc., priority 1994, dated 1997).

Assays:
COX II = target: T1, COX II (Homo sapiens, UniProt P35354); test: radiometric assay, COX II inhibition (human recombinant, baculovirus expressed, partially purified); assay type: biochemical; set-up: A 1.8 Kb DNA fragment containing the coding region of human COX II was generated by PCR; made in house; host or cells: Sf9 insect cells, baculovirus; conditions: radiometric assay, human recombinant baculovirus expressed enzyme; read-out: COX II IC50 (Table 2)
T1 sequence (P35354 18-604): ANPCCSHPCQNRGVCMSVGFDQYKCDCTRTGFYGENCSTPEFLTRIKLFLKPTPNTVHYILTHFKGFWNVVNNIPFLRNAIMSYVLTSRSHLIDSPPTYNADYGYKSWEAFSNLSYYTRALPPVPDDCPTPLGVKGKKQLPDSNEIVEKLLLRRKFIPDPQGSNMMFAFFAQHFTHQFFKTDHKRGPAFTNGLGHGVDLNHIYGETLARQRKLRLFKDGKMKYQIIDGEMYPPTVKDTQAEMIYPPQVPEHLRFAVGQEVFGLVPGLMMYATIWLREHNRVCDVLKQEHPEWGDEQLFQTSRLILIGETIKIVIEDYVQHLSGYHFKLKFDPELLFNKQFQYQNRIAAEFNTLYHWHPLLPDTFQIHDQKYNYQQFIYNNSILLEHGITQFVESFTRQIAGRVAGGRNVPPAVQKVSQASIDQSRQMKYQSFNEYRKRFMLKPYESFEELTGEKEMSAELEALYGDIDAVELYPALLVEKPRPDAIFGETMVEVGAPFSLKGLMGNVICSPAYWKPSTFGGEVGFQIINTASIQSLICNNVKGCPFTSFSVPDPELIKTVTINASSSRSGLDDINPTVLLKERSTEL
Procedure: (§1) Human prostaglandin G/H synthase I and II ("COX I" and "COX II") were expressed in the baculovirus expression system and purified to high levels.
(§2) As described above, human recombinant COX I and COX II were cloned and expressed in a baculovirus system. Partially purified COX I and COX II enzymes were used for screening compounds for their ability to inhibit COX I and COX II activity, as described below.
(§3) Compound (16), in 2 μl DMSO, and control samples (carrier vehicles only) were mixed with COX I or COX II samples (e.g. fractions from the chromatography columns) in polypropylene tubes and preincubated with 2 mM phenol for 5 minutes and then with 1 μM hematin for an additional 5 minutes. The 150 μl reaction mixture consisted of 50 mM Tris --HCl, pH 7.9, 2 mM EDTA, 10% glycerol, 200 μM phenol, 1 μM hematin, 1-25 μl sample and 20 μM 1-[^14 C] arachidonate (80.000-100.000 cpm/tube). After 45 seconds at room temperature, the reaction was terminated by adding 200 μl of 2N HCl and 750 μl water. An aliquot (950 μl) of the reaction mixture was loaded onto a 1 ml C~ Sep-Pak (J. T. Baker, Phillipsburg, N.J.) which had been previously washed with 2-3 ml methanol and equilibrated with 5-6 ml distilled water. Oxygenated products were quantitatively eluted with 3 ml of acetonitrile, H2 O and acetic acid (50:50:0.1, v/v) and the radioactivity in the eluate determined in a scintillation counter.
(§4) Human recombinant 10 min incubation with Compound (16)
(§5) baculovirus 45 sec incubation with 20 μM AA
(§6) partially purified Separation of radioactive products

COX I = COX I (Homo sapiens, UniProt P23219); test: radiometric assay, COX I inhibition (human recombinant, baculovirus expressed, partially purified); assay type: biochemical; set-up: A 2 Kb fragment containing the coding region of COX I; made in house; host or cells: Sf9 insect cells, baculovirus (cDNA from Oxford Biomedical Research); conditions: radiometric assay, human recombinant baculovirus expressed enzyme; read-out: COX I IC50 (Table 2)
COX I, sequence (P23219 24-599): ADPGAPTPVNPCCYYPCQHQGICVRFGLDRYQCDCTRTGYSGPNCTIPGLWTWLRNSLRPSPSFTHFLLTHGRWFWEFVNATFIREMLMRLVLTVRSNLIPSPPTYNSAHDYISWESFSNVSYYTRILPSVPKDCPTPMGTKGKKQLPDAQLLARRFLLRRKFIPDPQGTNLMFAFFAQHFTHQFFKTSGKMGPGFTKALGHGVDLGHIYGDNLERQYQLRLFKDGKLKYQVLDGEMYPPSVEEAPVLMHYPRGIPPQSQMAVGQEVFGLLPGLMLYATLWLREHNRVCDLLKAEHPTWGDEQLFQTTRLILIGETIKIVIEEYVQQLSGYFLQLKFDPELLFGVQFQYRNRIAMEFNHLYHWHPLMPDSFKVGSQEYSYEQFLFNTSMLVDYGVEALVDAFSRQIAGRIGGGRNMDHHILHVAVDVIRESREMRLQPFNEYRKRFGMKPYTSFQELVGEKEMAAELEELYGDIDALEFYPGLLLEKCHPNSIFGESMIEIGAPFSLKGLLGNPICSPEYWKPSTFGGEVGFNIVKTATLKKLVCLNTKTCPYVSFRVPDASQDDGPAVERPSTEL
Procedure: as §1, §2, §3, §4, §5, §6

[1] = physical stability / phase transformation of crystal forms of Compound (16); assay type: physicochemical; conditions: for conversion when suspended in alcohol or ethyl acetate: suspended in alcohol (Phase II: alcohol or ethyl acetate)
Source text: Phase I was obtained when Compound (16) was recrystallized from methanol, ethanol, ethanol/acetic acid, acetone, ethyl acetate, ethyl acetate/acetic acid, dichloromethane, tetrahydrofuran or tetrahydrofuran/ethyl acetate.
Phase II was obtained when Compound (16) was recrystallized from toluene.
Phase III was obtained by rapid precipitation of Compound (16) from acetic acid/water.
Hydrate I, a monohydrate, was also obtained by slow recrystallization of Compound (16) from acetic acid/water.

stomach PGE2 = assay type: in vivo, rat; conditions: 2-5 mg/kg
Procedure: To examine the effect of Compound (16) on prostaglandin (PG) synthesis in inflamed tissues, Compound (16) was tested in a carrageenan-induced inflammation (air-pouch model) in rats. PGE2 levels in the air-pouch exudate were measured by enzyme immunoassay in rats treated with 0.1-30 mg/kg of Compound (16). […] […].
To test the effects of Compound (16) on PG synthesis in non-inflamed tissue, PGE2 levels were measured in the stomach of rats from the above experiments. […]

stomach and intestines = conditions: general statement (background); cited from earlier work
[2] = test system: PGE2 levels in the air-pouch exudate; test: PGE2 in exudate of carrageenan-induced inflammation (air-pouch model) in rats; assay type: in vivo, rat; conditions: 2-5 mg/kg
[3] = test system: adjuvant-induced arthritis; test: adjuvant-induced arthritis in the rat; assay type: in vivo; conditions: second test

| Structure (SMILES) | IC50 (COX II) [nM] | IC50 (COX I) [nM] | conversion when suspended in alcohol or ethyl acetate [1] | conversion when suspended in water [1] | also measured |
| --- | --- | --- | --- | --- | --- |
| Cc1cc(Cc2ccc(=O)n(CO)n2)n(C)c1C(=O)c1ccc(Cl)cc1 [Compound 153, 6-[5-(4-chloro-benzoyl)-1,4,-dimethyl-1H-pyrrol-2-ylmethyl]-2-(hydroxy-methyl)-2H-pyridazin-3-one] | 540 | > 100000 | – | – | – |
| CC[C@H](C)NC(=O)Cn1nc(Cc2cc(C)c(C(=O)c3ccc(Cl)cc3)n2C)ccc1=O [Compound 157, S--N-sec-butyl-2-{3-[5-(4-chloro-benzoyl)-1,4,-dimethyl-1H-pyrrol-2-ylmethyl]-6-oxo-6H-pyridazin-1-yl}-acetamide] | 1630 | 24400 | – | – | – |
| CC[C@@H](C)NC(=O)Cn1nc(Cc2cc(C)c(C(=O)c3ccc(Cl)cc3)n2C)ccc1=O [Compound 158, R--N-sec-butyl-2-{3-[5-(4-chloro-benzoyl)-1,4,-dimethyl-1H-pyrrol-2-ylmethyl]-6-oxo-6H-pyridazin-1-yl}-acetamide] | 680 | 3200 | – | – | – |
| CC(=O)OCn1nc(Cc2cc(C)c(C(=O)c3ccc(Cl)cc3)n2C)ccc1=O [Compound 161, acetic acid 2-{3-[5-(4-chloro-benzoyl)-1,4,-dimethyl-1H-pyrrol-2-ylmethyl]-6-oxo-6H-pyridazin-1-yl}-methyl ester] | 610 | 64700 | – | – | – |
| COc1ccc(Cn2nc(Cc3cc(C)c(C(=O)c4ccc(Cl)cc4)n3C)ccc2=O)cc1 [Compound 168, 6-[5-(4-chloro-benzoyl)-1,4,-dimethyl-1H-pyrrol-2-ylmethyl]-2-(4-methoxybenzyl)-2H-pyridazin-3-one] | 910 | 7900 | – | – | – |
| Cc1cc(Cc2ccc(=O)[nH]n2)n(C)c1C(=O)c1ccc(Cl)cc1 [Hydrate I] | – | – | can be converted back to Phase I | – | physical stability, duration ([1]; 40° C./75% relative humidity): 14 days; physical stability ([1]; 40° C./ambient relative humidity, within 11-95% relative humidity): physically stable; conversion on heating at 120° C. ([1]; 120° C.): phase conversion to another anhydrous crystal form; dehydration at temperatures below 100° C. ([1]; below 100° C., ambient conditions and 23% relative humidity): produced a metastable form that converted back to Hydrate I |
| Cc1cc(Cc2ccc(=O)[nH]n2)n(C)c1C(=O)c1ccc(Cl)cc1 [Phase III] | – | – | converted to Phase I | converted to Hydrate I | – |
| Cc1cc(Cc2ccc(=O)[nH]n2)n(C)c1C(=O)c1ccc(Cl)cc1 [Phase II] | – | – | converted to Phase I | converted to another hydrate, Hydrate II | – |
| Cc1cc(Cc2ccc(=O)[nH]n2)n(C)c1C(=O)c1ccc(Cl)cc1 [Phase I] | – | – | – | converted to a monohydrate, Hydrate I | phase transformation on milling and micronization ([1]; milling and micronization): did not cause any phase transformation; physically stable for ([1]; unmilled (-200 μm), 40° C./75% relative humidity): at least 4 days |
| COc1ccc2c(c1)c(CC(=O)O)c(C)n2C(=O)c1ccc(Cl)cc1 [indomethacin, reference compound] | – | – | – | – | inhibition of stomach PGE2 (stomach PGE2): > 80%; corrosiveness to the stomach and intestines of rats (stomach and intestines): highly corrosive to the stomach and intestines of rats; inhibition of PGE2 in the exudates [2]: > 70%; inhibition of adjuvant-induced arthritis ([3]; 0.3 mg/kg/day): 66%; inhibition of adjuvant-induced arthritis ([3]; 0.6 mg/kg/day): 79% |
